Legend:
[1] = system: phosphorylation of Akt at Serine 473 in U87 MG cells; assay: pAkt AlphaScreen (U87 cell); type: cell-based; details: Homo sapiens, U-87 MG, 2 h; pAkt at Serine 473, U87 MG cells, two hours with compound
Procedure: The pAkt AlphaScreen® assay (PerkinElmer, Waltham, Mass.) determines whether there is phosphorylation of Akt at Serine 473 by recruitment of a phosphospecific antibody. This assay was performed using U87 MG cells. The U87 growth media consists of MEM (Gibco, Carlsbad, Calif.) supplemented with 10% FBS (Gibco), 1× Non-Essential Amino Acids (Gibco,) and 1× Penicillin/Streptomycin/Glutamine (Gibco). The cells were maintained weekly using 0.05% Trypsin (Gibco) and replated in 150 mm TC— Treated Culture Dishes (Corning, Corning, N.Y.).
The first day of the assay, the adherent cells were trypsinized, media was added to the loose cells and cells were mixed to a homogenous mixture. 0.5 ml of the homogenous mixture was counted on the Beckman Coulter® Vi-Cell™ XR (Fullerton, Calif.). 50 frames of cells were counted and the number of viable cells was determined. The cells were then diluted to 0.25 million cells per ml, and centrifuged at 200 rcf for 5 minutes. The media was removed and the cells were reconstituted in fresh media for plating. The cells were plated at 20 μl per well on the PerkinElmer® FlexDrop PLUS in Low Volume 384 Well White Tissue Culture Plates (Corning) with a final cell density of 5K cells per well. The plates were incubated overnight at 37° Celsius, 5% CO2.
On the second day, the compound plates were prepared, the cells were treated with compound and the pAkt reaction mix was added to the cell lysate. 384 well compound plates were prepared containing 1 μl of compound per well starting at 5 mM and diluted 1:2 across the row, resulting in a 22 well serial dilution. 39 μl of growth media was added to the compound plate in rows 1-22 using the PerkinElmer® FlexDrop PLUS resulting in a DMSO concentration of 2.5%. The cell plates and diluted compound plates were put onto the VELOCITY11™ VPREP™ 384 ST where the compound plate was mixed and 5 μl of serially diluted compound or controls was added to the cell plate. The final concentration of the compounds was 25 μM serially diluted to 11.9 pM in 0.5% DMSO.
The cell plates were then incubated with compound for two hours at 37° C., 5% CO2. After two hours, the media in the cell plates was aspirated using the BioTek® ELx405HT plate washer (Winooski, Vt.) removing the majority of media and compound without disturbing the adherent U87 cells. The following assay reagents are components of the SureFire® Akt (Ser 473) Phosphorylation 50K Point Kit (TGR BioSciences, Adelaide, Austalia) and an IgG Detection Kit (PerkinElmer, Waltham, Mass.). 5 μl of 1× Lysis Buffer was added to each well using the PerkinElmer® FlexDrop PLUS. The plates were then incubated at room temperature on a shaker for ten minutes. The AlphaScreen® reaction was prepared under low light conditions (subdued or green light) including p-Aid (Ser 473) Reaction Buffer, Dilution Buffer, Activation Buffer, Acceptor Beads and Donor Beads at a ratio of 40:20:10:1:1 respectively. The AlphaScreen® reaction was added to the cell lysate at 6 μl per well using the PerkinElmer® FlexDrop PLUS. The plates were placed in a humid environment to reduce edge effects and incubated overnight at room temperature with restricted air flow in the dark.
On the final day of the experiment, the plates were read on the PerkinElmer® EnVision™ 2103 Multilable Reader using the standard AlphaScreen® readout. The POC is calculated and the data is analyzed to report the IC50 IP for pAkt at Serine 473.
Activity data for the compounds tested in the PI3K cell based Akt assay is provided in Table 1 under the column heading U87

[2] = target: T1, PI3Kα (Homo sapiens, UniProt P42336); assay: In vitro PI3K AlphaScreen assay, PI3Kα; type: biochemical; details: PI(4,5)P2 substrate, 20 minutes at room temperature, read-out: P13Kalpha IC50 um
T1 construct: Full length p110 subunits of PI3K α, β and δ, N-terminally labeled with polyHis tag; polyHis (N); made in house; host or cells: Sf9 insect cells (baculovirus)
T1 sequence (P42336 whole entry): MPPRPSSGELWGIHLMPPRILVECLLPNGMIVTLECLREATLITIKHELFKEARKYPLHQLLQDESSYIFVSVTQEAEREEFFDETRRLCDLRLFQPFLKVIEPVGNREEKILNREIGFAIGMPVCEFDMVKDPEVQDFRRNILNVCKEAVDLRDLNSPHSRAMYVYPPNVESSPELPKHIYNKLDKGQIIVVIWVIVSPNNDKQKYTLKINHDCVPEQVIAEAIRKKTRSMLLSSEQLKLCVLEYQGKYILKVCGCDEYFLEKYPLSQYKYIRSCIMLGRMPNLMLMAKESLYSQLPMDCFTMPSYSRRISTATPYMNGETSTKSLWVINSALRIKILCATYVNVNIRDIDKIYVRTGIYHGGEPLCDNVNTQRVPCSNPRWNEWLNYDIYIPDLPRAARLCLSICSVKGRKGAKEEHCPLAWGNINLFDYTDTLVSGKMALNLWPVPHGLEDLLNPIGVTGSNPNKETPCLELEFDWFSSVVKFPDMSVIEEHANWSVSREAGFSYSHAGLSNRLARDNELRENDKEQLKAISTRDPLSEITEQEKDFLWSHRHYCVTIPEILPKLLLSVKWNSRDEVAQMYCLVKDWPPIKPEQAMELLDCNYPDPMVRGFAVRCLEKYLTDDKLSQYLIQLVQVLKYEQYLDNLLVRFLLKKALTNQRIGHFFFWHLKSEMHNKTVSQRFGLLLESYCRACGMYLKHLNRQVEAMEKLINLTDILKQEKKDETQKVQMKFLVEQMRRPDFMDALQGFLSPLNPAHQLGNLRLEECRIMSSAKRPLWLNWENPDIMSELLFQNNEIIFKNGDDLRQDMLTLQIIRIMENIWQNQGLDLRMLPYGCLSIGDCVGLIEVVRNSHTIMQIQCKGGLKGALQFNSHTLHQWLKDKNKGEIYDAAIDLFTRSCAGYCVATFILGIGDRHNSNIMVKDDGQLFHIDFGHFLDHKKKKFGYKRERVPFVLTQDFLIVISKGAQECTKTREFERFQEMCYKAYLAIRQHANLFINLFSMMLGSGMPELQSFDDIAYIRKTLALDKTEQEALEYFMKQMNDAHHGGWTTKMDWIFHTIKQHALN
T1 sequence (P27986 whole entry partner): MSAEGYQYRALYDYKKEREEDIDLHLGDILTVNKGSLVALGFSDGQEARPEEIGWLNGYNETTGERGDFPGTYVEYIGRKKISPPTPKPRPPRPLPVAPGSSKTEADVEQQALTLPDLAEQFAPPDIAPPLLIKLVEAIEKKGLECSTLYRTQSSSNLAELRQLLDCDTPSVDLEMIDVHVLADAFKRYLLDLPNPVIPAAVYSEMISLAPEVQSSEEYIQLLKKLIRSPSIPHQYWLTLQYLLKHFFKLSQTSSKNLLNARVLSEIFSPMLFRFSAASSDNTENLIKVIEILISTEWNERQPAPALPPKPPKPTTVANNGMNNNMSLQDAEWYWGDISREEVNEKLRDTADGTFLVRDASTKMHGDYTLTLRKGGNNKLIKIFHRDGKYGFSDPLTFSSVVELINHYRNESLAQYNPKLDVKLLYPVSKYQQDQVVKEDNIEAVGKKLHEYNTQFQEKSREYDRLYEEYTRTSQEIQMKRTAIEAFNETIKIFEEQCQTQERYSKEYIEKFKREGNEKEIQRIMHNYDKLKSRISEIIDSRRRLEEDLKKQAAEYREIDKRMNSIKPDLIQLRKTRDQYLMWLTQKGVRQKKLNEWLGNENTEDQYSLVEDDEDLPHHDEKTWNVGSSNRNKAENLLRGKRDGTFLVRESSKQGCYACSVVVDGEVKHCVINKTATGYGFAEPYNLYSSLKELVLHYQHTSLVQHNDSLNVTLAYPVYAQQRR
Procedure: The PI3K AlphaScreen® assay (PerkinElmer, Waltham, Mass.) measures the activity of a panel of four phosphoinositide 3-kinases: PI3Kα, PI3KIβ, PI3Kγ, and PI3Kδ. Each of these enzymes phosphorylates the 3′-hydroxyl group on phosphatidylinositiol (4,5)-bisphosphate (PIP2) to produce phosphatidylinositol (3,4,5)-trisphosphate (PIP3). This phosphorylation activity is measured using a GST-tagged PIP3 binding protein (Echelon Biosciences, Salt Lake City, Utah), an anti-GST-tagged Acceptor bead, and streptavidin-Donor bead. The interaction of biotinylated-PIP3 analog (IP4) and the PIP3 binding protein brings both Acceptor and Donor beads together producing, upon excitation of the Donor beads at 680 nm, a singlet oxygen species leading to the luminescent AlphaScreen® signal. When PIP3 is produced via phosphorylation of PIP2 by a PI3K, PIP3 competes with biotinylated-PIP3 analog (IP4) for binding to the PIP3 binding protein. In the absence of this interaction, proximity of the Donor and Acceptor beads is decreased, producing a loss of luminescent signal which is […] to PI3K activity. […] The enzyme reaction buffer is made using sterile water (Baxter, Deerfield, Ill.) and 50 mM Tris HCl pH 7, 14 mM MgCl2, 2 mM sodium cholate, and 100 mM NaCl. 2 mM DTT is added fresh the day of the experiment. The AlphaScreen® reaction buffer is made using sterile water and 10 mM Tris HCl pH 7.5, 150 mM NaCl, 0.10% Tween 20, and 30 mM EDTA. 1 mM DTT is added fresh the day of the experiment. The source plates for this assay are 384-well Greiner clear polypropylene plates containing test compounds at 5 mM and diluted 1:2 over 22 points. Columns 23 and 24 contain only DMSO as these are designated for positive and negative controls. Source plates are replicated into 384-well Optiplates (PerkinElmer, Waltham, Mass.), 0.5 μL/well, to make assay-ready plates. The different PI3K isoforms are each diluted in enzyme reaction buffer to 2× working solutions. PI3Kα is diluted to 1.6 nM, PI3Kβ is diluted to 0.8 nM, PI3Kγ is diluted to 15 nM, and PI3Kδ is diluted to 1.6 nM. Two different 2× substrate solutions are made in enzyme reaction buffer. In one solution, PI(4,5)P2 (Echelon Biosciences, Salt Lake City, Utah) is diluted to 10 μM and ATP is diluted to 20 μM. This solution is used in the assays testing PI3Kα and PI3Kβ. In a second solution, PI(4,5)P2 is diluted to 10 μM and ATP is diluted to 80 μM. This solution is used in the assays testing PI3Kγ and PI3Kδ. The AlphaScreen® reaction solutions are made using beads from the anti-GST AlphaScreen® kit (PerkinElmer, Waltham, Mass.). Two solutions are made in Alphascreen reaction buffer to 4× working concentrations. In one solution, biotinylated-IP4 (Echelon Biosciences, Salt Lake City, Utah) is diluted to 40 nM and streptavadin-Donor Beads are diluted to 80 μg/mL. In the second solution, PIP3-binding protein (Echelon Biosciences, Salt Lake City, Utah) is diluted to 40 nM and anti-GST-Acceptor Beads are diluted to 80 μg/mL. 10 μL/well of enzyme reaction buffer is added to Column 24 of the assay ready plates in place of enzyme. This is done for plates in the PI3Kα, β, and δ assays. Using a 384-well dispensing Multidrop (Titertek, Huntsville, Ala.), 10 μL/well of 2× enzyme (PI3Kα, β, δ) is added to Columns 1-23 of the appropriate assay ready plates (for PI3Kγ 10 μL is added to Columns 1-24). 10 μL/well of the appropriate substrate solution (the solution with 20 μM ATP for PI3Kα and β assays, and the solution with […] for PI3Kγ and δ assays) is then added to Columns 1-24 of the plates. Plates are then incubated at room temperature for 20 minutes. In the dark, 10 μL/well of the Donor Bead solution is added to Columns 1-24 of the plates to quench the enzyme reaction. The plates are incubated at room temperature for 30 minutes. Still in the dark, 10 μL/well of the Acceptor Bead solution is also added to Columns 1-24 of the plates. The plates are then incubated in the dark for 1.5 hours.

| IC50 [1] | IC50 [2] | SMILES |
| --- | --- | --- |
| 0.04 µM |  | COc1ccc(Nc2nc3ccccn3c2-c2nc(C)nc(N)n2)cn1 [Cpd 4, 3-(4-amino-6-methyl-1,3,5-triazin-2-yl)-N-(6-methoxypyridin-3-yl)imidazo[1,2-a]pyridin-2-amine] |
| 0.026 µM |  | COCCN1CCN(c2ccc3nc(Nc4cnc(OC)c(F)c4)c(-c4nc(C)nc(N)n4)n3c2)CC1 [Cpd 29, 3-(4-amino-6-methyl-1,3,5-triazin-2-yl)-N-(5-fluoro-6-methoxy-3-pyridinyl)-6-(4-(2-methoxyethyl)-1-piperazinyl)imidazo[1,2-a]pyridin-2-amine] |
| 1.63 µM | 4.5 µM | CNc1cc(-c2c(Nc3cc[nH]n3)nc3cc(N4CCOCC4)cnn23)nc(C)n1 [Cpd 88, 3-(2-methyl-6-(methylamino)-4-pyrimidinyl)-7-(4-morpholinyl)-N-1H-pyrazol-3-ylimidazo[1,2-b]pyridazin-2-amine] |
| 3.92 µM |  | Cc1nc(N)cc(-c2c(Nc3cccc(S(C)(=O)=O)c3)nc3cccnn23)n1 [Cpd 94, 3-(6-amino-2-methyl-4-pyrimidinyl)-N-(3-(methylsulfonyl)phenyl)imidazo[1,2-b]pyridazin-2-amine] |
| 3.16 µM | 5.03 µM | Cc1nc(NC(=O)Cc2cccc(F)c2)cc(-c2c(Nc3ccn(C)n3)nc3ccccn23)n1 [Cpd 128] |
| 1.47 µM | 4.94 µM | Cc1nc(NC(=O)Cc2ccc(F)cc2F)cc(-c2c(Nc3ccn(C)n3)nc3cccnn23)n1 [Cpd 129, 2-(2,4-difluorophenyl)-N-(2-methyl-6-(2-((1-methyl-1H-pyrazol-3-yl)amino)imidazo[1,2-b]pyridazin-3-yl)-4-pyrimidinyl)acetamide] |
| 0.28 µM |  | Cc1nc(Nc2ccc(N3CCOCC3)nn2)cc(-c2c(Nc3ccn(C)n3)nc3cccnn23)n1 [Cpd 149, 3-(2-methyl-6-((6-(4-morpholinyl)-3-pyridazinyl)amino)-4-pyrimidinyl)-N-(1-methyl-1H-pyrazol-3-yl)imidazo[1,2-b]pyridazin-2-amine] |
|  | 15.8 µM | Cc1nc(N)cc(-c2c(Nc3ccn(C(=O)Nc4cc(C(F)(F)F)ccc4Cl)n3)nc3cccnn23)n1 [Cpd 246, 3-((3-(6-amino-2-methyl-4-pyrimidinyl)imidazo[1,2-b]pyridazin-2-yl)amino)-N-(2-chloro-5-(trifluoromethyl)phenyl)-1H-pyrazole-1-carboxamide] |
| 3.15 µM | 33.4 µM | COCCNC(=O)n1ccc(Nc2nc3cccnn3c2-c2cc(N)nc(C)n2)n1 [Cpd 264] |
| 0.11 µM | 0.32 µM | Cc1nc(N)cc(-c2c(Nc3ccc(N4CC(O)C4)nc3)nc3cccnn23)n1 [Cpd 272, 1-(5-((3-(6-amino-2-methyl-4-pyrimidinyl)imidazo[1,2-b]pyridazin-2-yl)amino)-2-pyridinyl)-3-azetidinol] |
| 0.14 µM | 0.04 µM | Cc1nc(N)nc(-c2c(Nc3ccc4cccnc4c3)nc3ccc(N4CCN(C(=O)N(C)C)CC4)cn23)n1 [Cpd 277, 4-(3-(4-amino-6-methyl-1,3,5-triazin-2-yl)-2-(7-quinolinylamino)-imidazo[1,2-a]pyridin-6-yl)-N,N-dimethyl-1-piperazinecarboxamide] |
|  | 0.09 µM | COc1ccc(Nc2nc3ccc(N4CCN(C(C)=O)CC4)cn3c2-c2nc(C)nc(N)n2)cn1 [Cpd 285, 6-(4-acetyl-1-piperazinyl)-3-(4-amino-6-methyl-1,3,5-triazin-2-yl)-N-(6-methoxy-3-pyridinyl)imidazo[1,2-a]pyridin-2-amine] |
| 0.71 µM | 0.3 µM | Cc1nc(N)nc(-c2c(Nc3ccn[nH]3)nc3ccc(C(N)=O)cn23)n1 [Cpd 293, 3-(4-amino-6-methyl-1,3,5-triazin-2-yl)-2-(1H-pyrazol-5-ylamino)-imidazo[1,2-a]pyridine-6-carboxamide] |
| 0.24 µM | 2.98 µM | Cc1nc(NCC(F)(F)F)cc(-c2c(Nc3ccn[nH]3)nc3cccnn23)n1 [Cpd 295, 3-(2-methyl-6-((2,2,2-trifluoroethyl)amino)-4-pyrimidinyl)-N-1H-pyrazol-5-ylimidazo[1,2-b]pyridazin-2-amine] |
| 0.95 µM |  | Cc1nc(N)cc(-c2c(Nc3cccc(NC(=O)NC4CC4)c3)nc3cccnn23)n1 [Cpd 316, 1-(3-((3-(6-amino-2-methyl-4-pyrimidinyl)imidazo[1,2-b]pyridazin-2-yl)amino)phenyl)-3-cyclopropylurea] |
|  | 12 µM | Cc1nc(N)cc(-c2c(Nc3cccc(NC(=O)Cc4ccccc4)c3)nc3ccccn23)n1 [Cpd 318, N-(3-((3-(6-amino-2-methyl-4-pyrimidinyl)imidazo[1,2-a]pyridin-2-yl)amino)phenyl)-2-phenylacetamide] |
| 0.24 µM | 4.94 µM | CNC(=O)c1cccc(Nc2nc3cccnn3c2-c2cc(N)nc(C)n2)c1 [Cpd 334] |

From patent publication US20120190666A1, “Heteroaryl Compounds as PIKK Inhibitors” (Amgen Inc., priority 2009, published 2012)
